The target of assay [1] is T1, hENPP2 (UniProtKB/SwissProt Q13822) (Homo sapiens (Human), UniProt Q13822). The assay is described as follows: hENPP2 biochemical assay, LPC as substrate. The following applies: LPC (palmitoyl 16:0) as substrate. The method in brief:
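Human ENPP2 in 50 mM Tris-HCl pH 8.5, 500 mM NaCl, 5 mM KCl, 10 mM CaCl2, 0.1% fatty-acid-free BSA, reacted 30 min at 37 °C with LPC 16:0 (150 µM solution added 1:1). Released choline measured via choline oxidase/peroxidase/TOOS/4-aminoantipyrine quinoneimine dye at 555 nm; IC50 reported.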

In assay [2] the target is T1, hENPP2. The assay is described as follows: fluorescent hENPP2 biochemical assay, FS-3 as substrate. The following applies: read-out: FS3-IC50. On the procedure:
Compound IC50 values are determined in a fluorescent hENPP2 (UniProtKB/SwissProt Sequence ref Q13822) biochemical assay using the fluorogenic autotaxin substrate FS-3 as substrate. FS-3 is a doubly labeled analog of LPC wherein the fluorophore is quenched through intramolecular energy transfer. Without hENPP2, the emission of the probe is quenched. If the substrate is hydrolyzed by hENPP2, the emission of the probe is not quenched anymore resulting in a fluorescence increase.
The enzyme is diluted in 50 mM Tris-HCl pH 8.0, 250 mM NaCl, 5 mM KCl, 1 mM MgCl2, 1 mM CaCl2, 0.1% fatty acid free BSA in a total volume of 20 μL. Enzyme mixture is added to compounds and the resulting mixture is incubated for 30 min at room temperature under shaking. The reaction is started by the addition of 20 μL of 0.75 μM FS-3 diluted in the same buffer as described above and the mixture is incubated at 30° C. for 30 min. Fluorescence is read on the Envision (Excitation 485 nm, emission 520 nm).

Among the data in US9670204B2, “Compounds and pharmaceutical compositions thereof for the treatment of inflammatory disorders” (Galapagos NV, priority 2013, dated 2017) are IC50 values, retold here.

Structures are written as SMILES.

As to `CCc1nc2ccc(N3CCCS3(=O)=O)cn2c1N(C)c1nc(-c2ccc(F)cc2)cs1` [Compound 229, [6-(1,1-Dioxo-isothiazolidin-2-yl)-2-ethyl-imidazo[1,2-a]pyridin-3-yl]-[4-(4-fluoro-phenyl)-thiazol-2-yl]-methyl-amine], the results for the half-maximal inhibitory concentration (IC50) against hENPP2 [1] and at hENPP2 [2] were more than 1000 nM and 100 to 500 nM, respectively.
As for `CCc1nc2ccc(N3CCN(C(=O)OC(C)(C)C)CC3)cn2c1N(C)c1nc(-c2ccc(F)cc2)cs1` [Compound 23, tert-butyl 4-(2-ethyl-3-((4-(4-fluorophenyl)thiazol-2-yl)(methyl)amino)imidazo[1,2-a]pyridin-6-yl)piperazine-1-carboxylate], the IC50 is more than 1000 nM against hENPP2 [1] and 0.01 to 100 nM on hENPP2 [2].
Taken in the same sequence, the figures for `CCOC(=O)CN1CCN(c2ccc3nc(CC)c(N(C)c4nc(-c5ccc(Cl)cc5)cs4)n3c2)C1=O` [Compound 184, ethyl 2-(3-(3-((4-(4-chlorophenyl)thiazol-2-yl)(methyl)amino)-2-ethylimidazo[1,2-a]pyridin-6-yl)-2-oxoimidazolidin-1-yl)acetate] were more than 1000 nM and 0.01 to 100 nM.
For the compound `CCc1nc2ccc(C3CCN(S(C)(=O)=O)CC3)cn2c1N(C)c1nc(-c2ccc(F)cc2O)cs1` [Compound 224, 2-(2-((2-ethyl-6-(1-(methylsulfonyl)piperidin-4-yl)imidazo [1,2-a]pyridin-3-yl)(methyl)amino)thiazol-4-yl)-5-fluorophenol], the IC50 on hENPP2 [1] is more than 1000 nM; on hENPP2 [2], 0.01 to 100 nM.
For the compound `CCc1nc2ccc(N3CCN(S(=O)(=O)CC(=O)O)CC3)cn2c1N(C)c1nc(-c2ccc(F)cc2)cs1` [Compound 60, 2-(4-(2-ethyl-3-((4-(4-fluorophenyl)thiazol-2-yl)(methyl)amino)imidazo[1,2-a]pyridin-6-yl)piperazin-1-ylsulfonyl)acetic acid], the results for the IC50 against hENPP2 [1] and at hENPP2 [2] were more than 1000 nM and 0.01 to 100 nM, respectively.
Taken in the same sequence, the figures for `CCc1nc2ccc(C3CCNCC3)cn2c1N(C)c1nc(-c2ccc(F)cc2)cs1` [Compound 216, N-(2-ethyl-6-(piperidin-4-yl)imidazo[1,2-a]pyridin-3-yl)-4-(4-fluorophenyl)-N-methylthiazol-2-amine] were more than 1000 nM and 0.01 to 100 nM.
On to `CCc1nc2ccc(C3CCN(S(N)(=O)=O)CC3)cn2c1N(C)c1nc(-c2ccc(F)cc2)cs1` [Compound 92, 4-(2-ethyl-3-((4-(4-fluorophenyl)thiazol-2-yl)(methyl)amino)imidazo[1,2-a]pyridin-6-yl)piperidine-1-sulfonamide], for which the 50% inhibitory concentration (IC50) against hENPP2 [1] is more than 1000 nM; at hENPP2 [2], 0.01 to 100 nM.
Taken in the same sequence, the figures for `CCc1nc2ccc(N3CCN(Cc4ncon4)CC3)cn2c1N(C)c1nc(-c2ccc(F)cc2)cs1` [Compound 41, N-(6-(4-((1,2,4-oxadiazol-3-yl)methyl)piperazin-1-yl)-2-ethylimidazo[1,2-a]pyridin-3-yl)-4-(4-fluorophenyl)-N-methylthiazol-2-amine] were more than 1000 nM and 0.01 to 100 nM.
Turning to `CCc1nc2ccc(C3=CCN(S(=O)(=O)CCl)CC3)cn2c1N(C)c1nc(-c2ccc(F)cc2)cs1` [Compound 67, N-(6-(1-(chloromethylsulfonyl)-1,2,3,6-tetrahydropyridin-4-yl)-2-ethylimidazo[1,2-a]pyridin-3-yl)-4-(4-fluorophenyl)-N-methylthiazol-2-amine], the concentration for half-maximal inhibition (IC50) on hENPP2 [1] was more than 1000 nM; on hENPP2 [2], 0.01 to 100 nM.
As for `CCc1nc2ccc(C3=CCS(=O)(=O)CC3)cn2c1N(C)c1nc(-c2ccc(Cl)cc2)cs1` [Compound 76, 4-(2-ethyl-3-((4-(4-chlorophenyl)thiazol-2-yl)(methyl)amino)imidazo[1,2-a]pyridin-6-yl)-3,6-dihydro-2H-thiopyran 1,1-dioxide], the values for the 50% inhibitory concentration (IC50) against hENPP2 [1] and on hENPP2 [2] were more than 1000 nM and 0.01 to 100 nM, respectively.

The term IC50 denotes the concentration that inhibits the measured activity by half.
